Measurements reported in PubChem BioAssay (NCI).
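Results reflect a 48-hour exposure of cells in 96-well plates to compound at five concentrations. TGI: total growth inhibition.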

Tests used:
Experiment in all cases: NCI tumour cell line growth inhibition, 48 h
[1] = test system: 786-0 renal
[2] = test system: SK-MEL-2 melanoma
[3] = test system: SW-620 colon
[4] = test system: HOP-62 NSCLC
[5] = test system: UACC-62 melanoma
[6] = test system: MCF7 breast
[7] = test system: RPMI-8226 leukemia
[8] = test system: ACHN renal
[9] = test system: NCI-H522 lung
[10] = test system: HCT-116 colon
[11] = test system: TK-10 renal
[12] = test system: MDA-MB-435
[13] = test system: A549 NSCLC
[14] = test system: HCT-15 colon
[15] = test system: T-47D breast
[16] = test system: K-562 leukemia
[17] = test system: U251 CNS
[18] = test system: OVCAR-4 ovarian
[19] = test system: SF-295 CNS
[20] = test system: OVCAR-3 ovarian
[21] = test system: MDA-MB-231 breast
[22] = test system: SF-268 CNS
[23] = test system: OVCAR-5 ovarian
[24] = test system: COLO 205 colon
[25] = test system: SK-MEL-28 melanoma
[26] = test system: NCI-H226 lung
[27] = test system: SK-OV-3 ovarian
[28] = test system: IGROV1 ovarian
[29] = test system: MOLT-4 leukemia
[30] = test system: M14 melanoma
[31] = test system: BT-549 breast
[32] = test system: MALME-3M melanoma
[33] = test system: HS 578T breast
[34] = test system: A498 renal
[35] = test system: SNB-19 CNS
[36] = test system: NCI-H460 lung
[37] = test system: SF-539 CNS
[38] = test system: SK-MEL-5 melanoma
[39] = test system: CAKI-1 renal
[40] = test system: NCI-H23 lung
[41] = test system: EKVX NSCLC
[42] = test system: NCI/ADR-RES ovarian
[43] = test system: HOP-92 NSCLC
[44] = test system: MDA-N
[45] = test system: UO-31 renal
[46] = test system: SN12C renal
[47] = test system: PC-3 prostate
[48] = test system: KM12 colon
[49] = test system: OVCAR-8 ovarian
[50] = test system: CCRF-CEM leukemia
[51] = test system: HT29 colon
[52] = test system: SNB-75 CNS
[53] = test system: LOX IMVI melanoma
[54] = test system: UACC-257 melanoma
[55] = test system: DU-145 prostate
[56] = test system: RXF 393 renal
[57] = test system: HCC-2998 colon
[58] = test system: SR leukemia

Measured: TGI

CC1N=C(c2ccccc2)OC1=O (stereo not drawn)
> 100 µM: [1] | [2] | [3] | [4] | [5] | [6] | [7] | [8] | [9] | [10] | [11] | [12] | [13] | [14] | [15] | [16] | [17] | [18] | [19] | [20] | [21] | [22] | [23] | [24] | [25] | [26] | [27] | [28] | [29] | [30] | [31] | [32] | [33] | [34] | [35] | [36] | [37] | [38] | [39] | [40] | [41] | [42] | [43] | [44] | [45] | [46] | [47] | [48] | [49] | [50] | [51] | [52] | [53] | [54] | [55]

COc1cc2c(cc1O)C(=O)O[C@@H]1CC=C3CCN(C)[C@H]3[C@H]21
> 25 µM: [1] | [2] | [56] | [3] | [4] | [5] | [6] | [7] | [8] | [9] | [10] | [11] | [12] | [13] | [14] | [15] | [16] | [17] | [18] | [19] | [20] | [21] | [22] | [23] | [25] | [26] | [27] | [28] | [29] | [30] | [31] | [32] | [33] | [57] | [34] | [35] | [38] | [39] | [40] | [41] | [42] | [44] | [45] | [58] | [46] | [47] | [48] | [49] | [50] | [51] | [52] | [54] | [55]
